Reference: patent publication US20160081354A1, “METHOD FOR TREATMENT OF MICROORGANISMS DURING PROPAGATION, CONDITIONING AND FERMENTATION USING HOPS ACID EXTRACTS AND NISIN” (Solenis Technologies, L.P., priority 2014, published 2016)

Columns and labels:
[1] = system: yeast (Saccharomyces cerevisiae) fermentations contaminated by lactic acid bacteria (L. plantarum); test: Corn mash fermentation lab test: ethanol and lactic acid at the end of fermentation; format: cell-based; details: 64 hours, nisin alone 5 ppm, Virginiamycin 0.5 ppm
Description: Evaluations were conducted at the National Corn-to-Ethanol Research Center, utilizing hops acid extracts and nisin. The samples tested and their concentrations can be found in FIG. 1 and Tables 2 and 4. The tests were conducted to evaluate the effects of binary antimicrobials on ethanol production in corn mash produced under conditions that are similar to those used in the fuel ethanol industry. Two specific effects were investigated: (1) the ability of antimicrobials to affect ethanol yield and sugar conversion in fermentations that are contaminated by lactic acid bacteria, and (2) the ability of antimicrobials to control bacterial infections compared to control bacteria-free fermentations. Three 160-gram slurries of corn flour, water and enzyme (30% w/w dry solids) were made for each treatment and control (inoculated and uninoculated). The slurries were incubated for 90 minutes at 83° C., cooled to 40° C., and then inoculated with L. plantarum. Next, the slurries were dosed with antimicrobial. […] The mass of each flask was recorded after all additions were made, then sanitized fermentation traps were inserted into each flask and they were weighed again. […] Fermentation progress was monitored by weighing the fermentation flasks periodically during the 3-day incubation (at 0, 17.5, 22.5, 42.5, 48, and 64 hrs after inoculation with yeast). The concentrations of substrates (glucose, DP2, DP3, and DP4+, where “DPx” represent glucose oligomers with “x” subunits) and products (ethanol, glycerol, lactic acid, and acetic acid) were measured by HPLC at the end of fermentation. Samples were prepared for HPLC by centrifugation to remove large solids, followed by filtration through 0.45-μm syringe filters, and acidification to pH of approximately 2 by addition of sulfuric acid to a final concentration of 0.01 N. The final pH, concentrations of total dry solids and dissolved dry solids, and the density of the beer filtrate was measured were measured after incubation for 64 hours. […]

L. plantarum = test: Corn mash fermentation lab test: bacterial colony counts after antimicrobial addition; format: cell-based; details: nisin alone 5 ppm, virginiamycin 0.5 ppm
Description: Evaluations were conducted at the National Corn-to-Ethanol Research Center, utilizing hops acid extracts and nisin. The samples tested and their concentrations can be found in FIG. 1 and Tables 2 and 4. The tests were conducted to evaluate the effects of binary antimicrobials on ethanol production in corn mash produced under conditions that are similar to those used in the fuel ethanol industry. Two specific effects were investigated: (1) the ability of antimicrobials to affect ethanol yield and sugar conversion in fermentations that are contaminated by lactic acid bacteria, and (2) the ability of antimicrobials to control bacterial infections compared to control bacteria-free fermentations. Three 160-gram slurries of corn flour, water and enzyme (30% w/w dry solids) were made for each treatment and control (inoculated and uninoculated). The slurries were incubated for 90 minutes at 83° C., cooled to 40° C., and then inoculated with L. plantarum. Next, the slurries were dosed with antimicrobial. The facility dosed hops acid extracts and nisin to 250-mL Erlenmeyer flasks and samples were collected at 15, 30 and 60 minutes post antimicrobial addition. After the 3 time-point samples were collected, the pH of the mash was adjusted to <5.2 by addition of 300 μl of 5-N sulfuric acid. All enzymes, nutrients, and other amendments added to the fermentation flasks were freshly prepared before use. Urea was added as a sterile 0.2-g/ml solution to a final concentration of 500 ppm (w/w) based on the nitrogen content of the urea (w/w, based on the total mass of mash). The glucoamylase enzyme (Spirizyme Excel, Novozymes) was prepared as a 0.25-g/ml solution and added at a dose of 0.066% (w/w, based on the wet weight of corn). Sterile water was added to equalize the total solids content of each treatment. […] The mass of each flask was recorded after all additions were made, then sanitized fermentation traps were inserted into each flask and they were weighed again. […] Fermentation progress was monitored by weighing the fermentation flasks periodically during the 3-day incubation (at 0, 17.5, 22.5, 42.5, 48, and 64 hrs after inoculation with yeast). The concentrations of substrates (glucose, DP2, DP3, and DP4+, where “DPx” represent glucose oligomers with “x” subunits) and products (ethanol, glycerol, lactic acid, and acetic acid) were measured by HPLC at the end of fermentation. Samples were prepared for HPLC by centrifugation to remove large solids, followed by filtration through 0.45-μm syringe filters, and acidification to pH of approximately 2 by addition of sulfuric acid to a final concentration of 0.01 N. The final pH, concentrations of total dry solids and dissolved dry solids, and the density of the beer filtrate was measured were measured after incubation for 64 hours. […]

Weisella confusa = details: cited from earlier work
yeast = details: fermentation mixture; cited from earlier work

Virginiamycin
Average Ethanol ([1]; end of fermentation): 11.86 %, w/v
Average Final Lactic Acid Concentration ([1]; end of fermentation): 0.38 %, w/w
Average Final Ethanol Yield ([1]; grams ethanol per grams of dry corn, average of three flasks): 0.312 g/g
Colony counts after antimicrobial addition (L. plantarum; time point 0.25 (15 minutes post addition)): 1.00E+06
Colony counts after antimicrobial addition (L. plantarum; time point 0.5 (30 minutes post addition)): 1.35E+06
Colony counts after antimicrobial addition (L. plantarum; time point 1 (60 minutes post addition)): 1.95E+06
Colony counts at the end of fermentation (L. plantarum; time point 64 (64 hours)): 6.67E+04
concentration required to inhibit growth of Weisella confusa (Weisella confusa): over 25 mg/L
concentration that will suppress production of ethanol (yeast): over 2 mg/L
